In experiment [1] the test system is BxPC3 AbR (paclitaxel resistant) cells. Nature of the experiment: Nab-paclitaxel dose response with fixed FASN inhibitor, CellTiter-Glo viability, BxPC3 AbR. The following applies: for 3-Day IC50 Ratio + Compound 5 / 7-Day IC50 Ratio + Compound 5: BxPC3 AbR. In general terms: Cellular ATP, detected with luciferase, serves as a proxy for viable cell number.
Protocol: (§1) For drug treatment, MIA PaCa-2 or BxPC-3 cells were plated in %-well plates in RPMI medium plus 10% FBS. Parental (paclitaxel sensitive) or AbR (paclitaxel resistant) variants of the MIA PaCa-2 or BxPC-3 cell lines were used. […] Serial dilutions of Nab-paclitaxel were prepared in DMSO and further diluted 1:10 in RPMI medium for addition to the assay solution. RPMI-diluted compounds were added to each well 24-hours after cell plating. Assays were done in triplicate for each drug concentration, with cell viability measured at 3 or 7 days after compound addition. The number of viable cells was measured using the CellTiter-Glo assay (Promega) according to the manufactures instructions. Luminosity per well was determined and the signal intensity was analyzed versus drug concentration. For each FASN inhibitor, the concentration of drug resulting in 50% inhibition of the maximum signal was determined, and this value was reported as the IC50.
Experiment [2] concerns BxPC3 Parental (paclitaxel sensitive) cells. Nature of the experiment: Nab-paclitaxel dose response with fixed FASN inhibitor, CellTiter-Glo viability, BxPC3 Parental.
Protocol: as §1
The test system of experiment [3] is MIA PaCa-2 AbR (paclitaxel resistant) cells. Nature of the experiment: Nab-paclitaxel dose response with fixed FASN inhibitor, CellTiter-Glo viability, MIA PaCa-2 AbR. The note with it: for 3-Day IC50 Ratio + Compound 5 / 7-Day IC50 Ratio + Compound 5: MIA PaCa-2 AbR.
Protocol: as §1
Experiment [4] deals with MIA PaCa-2 Parental (paclitaxel sensitive) cells. Nature of the experiment: Nab-paclitaxel dose response with fixed FASN inhibitor, CellTiter-Glo viability, MIA PaCa-2 Parental.
Protocol: as §1

Values joined by “and” are separate entries in the source; they are usually repeats but may differ in a detail not shown here. Equal values may be shown once.

`Cc1cc(C)c(-c2[nH]c(C3COC3)nc2C)cc1C(=O)N1CC(c2ccc(C#N)cc2)C1` [Compound 5]: the “3-Day IC50 Ratio + Compound 5” value was 1.46 in experiment [1] (+ Compound 5 0.2 μM); 5.57 in experiment [1] (+ Compound 5 2.0 μM); 0.92 in experiment [2] (+ Compound 5 0.2 μM); 0.63 in experiment [2] (+ Compound 5 2.0 μM); 1.46 in experiment [3] (+ Compound 5 0.2 μM); 2.73 in experiment [3] (+ Compound 5 2.0 μM). The “3-Day IC50 Ratio + Compound 5” value is 1.18 in experiment [4] (+ Compound 5 0.2 μM) and 1.59 in experiment [4] (+ Compound 5 2.0 μM). The “7-Day IC50 Ratio + Compound 5” value in experiment [1] (+ Compound 5 0.2 μM) came out at 1.29; in experiment [1] (+ Compound 5 2.0 μM), 3.98; in experiment [2] (+ Compound 5 0.2 μM), 0.61; in experiment [2] (+ Compound 5 2.0 μM) it was 0.63; in experiment [3] (+ Compound 5 0.2 μM), 1.04; in experiment [3] (+ Compound 5 2.0 μM), 3.37. The “7-Day IC50 Ratio + Compound 5” value in experiment [4] (+ Compound 5 0.2 μM) was 1.09; in experiment [4] (+ Compound 5 2.0 μM), 1.88. Besides, the “shift of the BxPC-3 Nab-paclitaxel IC50 value” in experiment [1] (BxPC-3 paclitaxel resistant (AbR), Compound 5, 3 and 7 days (Table 2)) is 4.0 fold and 5.6 fold. The “shift of the MIA PaCa-2 Nab-paclitaxel IC50 value” in experiment [3] (MIA PaCa-2 paclitaxel resistant (AbR), Compound 5, 3 and 7 days (Table 2)) was 2.7 fold and 3.4 fold.

The record behind these values is patent US10363249B2, “Fatty acid synthase inhibitor for use in the treatment of drug resistant cancer” (3-V Biosciences, Inc., priority 2014, dated 2019).
